Assay results reported in PubChem BioAssay AID1963866 (Molecular Pharmacology Branch, DTP, NCI, 2024).

Tested on: PDC KRAS tumor spheroids with HUVEC/MSC, viability
Test: Anticancer human tumor 349418-098-R-PDC patient-derived lung adenocarcinoma cell line growth inhibition [KRAS2]
Conditions: for IC50: curve of first compound; for viability, T/C: stronger effect = lower value
Outline: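 Combination screen of spheroid viability in tumor-cell co-cultures with endothelial (HUVEC) and mesenchymal stem cell stroma. Each agent was tested in half-log dilutions, topping at clinical Cmax or at 10 microM without a known Cmax.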

[1] = second compound 0.1 µM, first compound 0.01 µM
[2] = second compound 0.1 µM, first compound 0.0316 µM
[3] = second compound 0.1 µM, first compound 0.1 µM
[4] = second compound 0.1 µM, first compound 0.316 µM
[5] = second compound 0.1 µM, first compound 1 µM
[6] = second compound 0.1 µM, first compound 3.16 µM
[7] = second compound 0.316 µM, first compound 0.01 µM
[8] = second compound 0.316 µM, first compound 0.0316 µM
[9] = second compound 0.316 µM, first compound 0.1 µM
[10] = second compound 0.316 µM, first compound 0.316 µM
[11] = second compound 0.316 µM, first compound 1 µM
[12] = second compound 0.316 µM, first compound 3.16 µM
[13] = second compound 1 µM, first compound 0.01 µM
[14] = second compound 1 µM, first compound 0.0316 µM
[15] = second compound 1 µM, first compound 0.1 µM
[16] = second compound 1 µM, first compound 0.316 µM
[17] = second compound 1 µM, first compound 1 µM
[18] = second compound 1 µM, first compound 3.16 µM
[19] = second compound 3.16 µM, first compound 0.01 µM
[20] = second compound 3.16 µM, first compound 0.0316 µM
[21] = second compound 3.16 µM, first compound 0.1 µM
[22] = second compound 3.16 µM, first compound 0.316 µM
[23] = second compound 3.16 µM, first compound 1 µM
[24] = second compound 3.16 µM, first compound 3.16 µM
[25] = second compound 10 µM, first compound 0.01 µM
[26] = second compound 10 µM, first compound 0.0316 µM
[27] = second compound 10 µM, first compound 0.1 µM
[28] = second compound 10 µM, first compound 0.316 µM
[29] = second compound 10 µM, first compound 1 µM
[30] = second compound 10 µM, first compound 3.16 µM
[31] = second compound 0.1 µM, first compound 10 µM
[32] = second compound 0.316 µM, first compound 10 µM
[33] = second compound 1 µM, first compound 10 µM
[34] = second compound 3.16 µM, first compound 10 µM
[35] = second compound 10 µM, first compound 10 µM
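Further: spheroids exposed to compounds for seven days before readout.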

SMILES: CC1COCCN1c1cc(-c2ccnn2C)c2ccnc(-c3ccn[nH]3)c2n1 (stereo not given) + CNCc1ccccc1-c1csc(C(C)Nc2nc(C)nc3cc(OC)c(OC)cc23)c1
- IC50 (second compound 0.1 µM): 25 nM
- IC50 (second compound 0.316 µM): 29.9 nM
- IC50 (second compound 1 µM): 18.5 nM
- IC50 (second compound 3.16 µM): < 10 nM
- IC50 (second compound 10 µM): < 10 nM
- viability, T/C [1]: 114%
- viability, T/C [2]: 33.4%
- viability, T/C [3]: 10.6%
- viability, T/C [4]: 7.11%
- viability, T/C [5]: 5.04%
- viability, T/C [6]: 3.83%
- viability, T/C [7]: 107%
- viability, T/C [8]: 47.1%
- viability, T/C [9]: 11.1%
- viability, T/C [10]: 5.41%
- viability, T/C [11]: 4.13%
- viability, T/C [12]: 3.71%
- viability, T/C [13]: 92.1%
- viability, T/C [14]: 13.4%
- viability, T/C [15]: 3.84%
- viability, T/C [16]: 4.41%
- viability, T/C [17]: 3.23%
- viability, T/C [18]: 2.84%
- viability, T/C [19]: 0.09%
- viability, T/C [20]: 0.21%
- viability, T/C [21]: 0.12%
- viability, T/C [22]: 0.03%
- viability, T/C [23]: 0.04%
- viability, T/C [24]: 0.13%
- viability, T/C [25]: 0.08%
- viability, T/C [26]: 0.07%
- viability, T/C [27]: 0.07%
- viability, T/C [28]: 0.07%
- viability, T/C [29]: 0.08%
- viability, T/C [30]: 0.13%

SMILES: CC1OCC2(CCN(c3cnc(Sc4ccnc(N)c4Cl)c(N)n3)CC2)C1N (stereo not given) + CNCc1ccccc1-c1csc(C(C)Nc2nc(C)nc3cc(OC)c(OC)cc23)c1
- IC50 (second compound 0.1 µM): > 10000 nM
- IC50 (second compound 0.316 µM): > 10000 nM
- IC50 (second compound 1 µM): < 31.6 nM
- IC50 (second compound 3.16 µM): < 31.6 nM
- IC50 (second compound 10 µM): < 31.6 nM
- viability, T/C [2]: 84.7%
- viability, T/C [3]: 98.9%
- viability, T/C [4]: 65%
- viability, T/C [5]: 103%
- viability, T/C [6]: 111%
- viability, T/C [31]: 88.3%
- viability, T/C [8]: 103%
- viability, T/C [9]: 91.1%
- viability, T/C [10]: 109%
- viability, T/C [11]: 88.2%
- viability, T/C [12]: 88.4%
- viability, T/C [32]: 72.9%
- viability, T/C [14]: 42.8%
- viability, T/C [15]: 35.4%
- viability, T/C [16]: 34%
- viability, T/C [17]: 46.8%
- viability, T/C [18]: 50.6%
- viability, T/C [33]: 16.5%
- viability, T/C [20]: 0.05%
- viability, T/C [21]: 0.07%
- viability, T/C [22]: 0.06%
- viability, T/C [23]: 0.41%
- viability, T/C [24]: 0.12%
- viability, T/C [34]: 0.17%
- viability, T/C [26]: 0.06%
- viability, T/C [27]: 0.07%
- viability, T/C [28]: 0.06%
- viability, T/C [29]: 0.35%
- viability, T/C [30]: 0.07%
- viability, T/C [35]: 0.12%

SMILES: Cn1nccc1Nc1nccc(-c2cc3c(s2)C(C)(C)N(CCN2CCOCC2)C3=O)n1 + CNCc1ccccc1-c1csc(C(C)Nc2nc(C)nc3cc(OC)c(OC)cc23)c1
- IC50 (second compound 0.1 µM): 37.8 nM
- IC50 (second compound 0.316 µM): < 31.6 nM
- IC50 (second compound 1 µM): < 31.6 nM
- IC50 (second compound 3.16 µM): < 31.6 nM
- IC50 (second compound 10 µM): < 31.6 nM
- viability, T/C [2]: 54.8%
- viability, T/C [3]: 25.9%
- viability, T/C [4]: 12.2%
- viability, T/C [5]: 8.63%
- viability, T/C [6]: 5.95%
- viability, T/C [31]: 4.72%
- viability, T/C [8]: 48.3%
- viability, T/C [9]: 21.5%
- viability, T/C [10]: 10.3%
- viability, T/C [11]: 6.91%
- viability, T/C [12]: 6.22%
- viability, T/C [32]: 3.95%
- viability, T/C [14]: 28.4%
- viability, T/C [15]: 8.49%
- viability, T/C [16]: 3.82%
- viability, T/C [17]: 2.34%
- viability, T/C [18]: 1.92%
- viability, T/C [33]: 1.22%
- viability, T/C [20]: 0.04%
- viability, T/C [21]: 0.3%
- viability, T/C [22]: 0.06%
- viability, T/C [23]: 0.07%
- viability, T/C [24]: 0.05%
- viability, T/C [34]: 0.1%
- viability, T/C [26]: 0.19%
- viability, T/C [27]: 0.25%
- viability, T/C [28]: 0.07%
- viability, T/C [29]: 0.08%
- viability, T/C [30]: 0.23%
- viability, T/C [35]: 0.13%

SMILES: CC(=O)OC12COC1CC(O)C1(C)C(=O)C(O)C3=C(C)C(OC(=O)C(O)C(NC(=O)OC(C)(C)C)c4ccccc4)CC(O)(C(OC(=O)c4ccccc4)C21)C3(C)C (stereo not given) + COc1cc2nc(C)nc(NC(C)c3cc(N)cc(C(F)(F)F)c3)c2cc1OC1CCOC1
- IC50 (second compound 0.1 µM): < 10 nM
- IC50 (second compound 0.316 µM): < 10 nM
- IC50 (second compound 1 µM): < 10 nM
- IC50 (second compound 3.16 µM): < 10 nM
- IC50 (second compound 10 µM): < 10 nM
- viability, T/C [1]: 22%
- viability, T/C [2]: 25.7%
- viability, T/C [3]: 24%
- viability, T/C [4]: 33.4%
- viability, T/C [5]: 27.4%
- viability, T/C [6]: 38.3%
- viability, T/C [7]: 20.7%
- viability, T/C [8]: 27.1%
- viability, T/C [9]: 25.8%
- viability, T/C [10]: 23.7%
- viability, T/C [11]: 28.6%
- viability, T/C [12]: 34.5%
- viability, T/C [13]: 22.8%
- viability, T/C [14]: 31.1%
- viability, T/C [15]: 27.4%
- viability, T/C [16]: 33.7%
- viability, T/C [17]: 27.8%
- viability, T/C [18]: 29.6%
- viability, T/C [19]: 18.3%
- viability, T/C [20]: 21.3%
- viability, T/C [21]: 21.7%
- viability, T/C [22]: 26.3%
- viability, T/C [23]: 28.3%
- viability, T/C [24]: 22.1%
- viability, T/C [25]: 20.1%
- viability, T/C [26]: 23.3%
- viability, T/C [27]: 25.4%
- viability, T/C [28]: 20.4%
- viability, T/C [29]: 23.2%
- viability, T/C [30]: 26.2%
